Assay results taken from patent US6825350B2, “Sulfonamide and sulfamide substituted imidazoquinolines and methods for the treatment of periodontal disease using these and other immune response modifiers” (3M Innovative Properties Company, priority 1999, dated 2004).
Where two headings read alike, the source gives them in different places.

Experiments:
interferon (α) = assay: Cytokine induction in human cells: interferon (α) by ELISA; type: cell-based; settings: human PBMCs, 18 to 24 hours incubation, ELISA of culture supernatant, read-out: Lowest Effective Concentration (μM) Interferon
[1] = system: tumor necrosis factor (α); assay: Cytokine induction in human cells: tumor necrosis factor (α) by ELISA; type: cell-based; settings: human PBMCs, 18 to 24 hours incubation, ELISA of culture supernatant, read-out: Lowest Effective Concentration (μM) Tumor Necrosis Factor

Row | Compound | minimal effective concentration (interferon (α); Homo sapiens, PBMC) [µM] | minimal effective concentration ([1]; Homo sapiens, PBMC) [µM] | minimal effective concentration (interferon (α)) [µM] | minimal effective concentration [1] [µM]
1 | CCCCc1nc2c(N)nc3ccccc3c2n1CCCCNS(=O)(=O)c1sc(NC(C)=O)nc1C [Example 77] | 0.001 | 1 | – | –
2 | CCCCc1nc2c(N)nc3ccccc3c2n1CCCCNS(=O)(=O)c1ccccc1Br [Example 78] | 0.001 | 0.1 | – | –
3 | CCCCc1nc2c(N)nc3ccccc3c2n1CCCCNS(=O)(=O)c1ccc(C(F)(F)F)cc1[N+](=O)[O-] [Example 79] | 0.01 | 1 | – | –
4 | CCCCc1nc2c(N)nc3ccccc3c2n1CCCCNS(=O)(=O)c1cccc(C(F)(F)F)c1 [Example 80] | 1 | 10 | – | –
5 | CCCCc1nc2c(N)nc3ccccc3c2n1CCCCNS(=O)(=O)c1ccc(OC)c(OC)c1 [Example 81] | 0.001 | 1 | – | –
6 | CCCCc1nc2c(N)nc3ccccc3c2n1CCCCNS(=O)(=O)CCCCl [Example 82] | 0.001 | 1 | – | –
7 | CCCCc1nc2c(N)nc3ccccc3c2n1CCCCNS(=O)(=O)c1cccc([N+](=O)[O-])c1 [Example 83] | 0.001 | 1 | – | –
8 | CCCCc1nc2c(N)nc3ccccc3c2n1CCCCNS(=O)(=O)c1ccc(C(=O)O)cc1 [Example 84] | 1 | 10 | – | –
9 | CCCCc1nc2c(N)nc3ccccc3c2n1CCCCNS(=O)(=O)c1ccc(OC(F)(F)F)cc1 [Example 85] | 1 | > 10 | – | –
10 | CCCCc1nc2c(N)nc3ccccc3c2n1CCCCNS(=O)(=O)c1ccc(Cl)c([N+](=O)[O-])c1 [Example 86] | 0.01 | 1 | – | –
11 | CCCCc1nc2c(N)nc3ccccc3c2n1CCCCNS(=O)(=O)c1ccc(F)cc1 [Example 87] | 0.001 | 1 | – | –
12 | CCCCc1nc2c(N)nc3ccccc3c2n1CCCCNS(=O)(=O)c1ccc([N+](=O)[O-])cc1 [Example 88] | 0.01 | 1 | – | –
13 | CCCCc1nc2c(N)nc3ccccc3c2n1CCCCNS(=O)(=O)C[C@]12CC[C@@H](CC1=O)C2(C)C [Example 89] | 0.001 | 1 | – | –
14 | CCCCc1nc2c(N)nc3ccccc3c2n1CCCCNS(=O)(=O)c1c(F)c(F)c(F)c(F)c1F [Example 90] | 0.01 | 1 | – | –
15 | CCCCc1nc2c(N)nc3ccccc3c2n1CCCCNS(=O)(=O)c1ccccc1OC(F)(F)F [Example 91] | 0.01 | 1 | – | –
16 | CCCCc1nc2c(N)nc3ccccc3c2n1CCCCNS(=O)(=O)c1ccc(Cl)cc1Cl [Example 92] | 0.1 | 10 | – | –
17 | CCCCc1nc2c(N)nc3ccccc3c2n1CCCCNS(=O)(=O)c1c(F)cccc1F [Example 93] | 0.001 | 0.1 | – | –
18 | CCCCc1nc2c(N)nc3ccccc3c2n1CCCCNS(=O)(=O)c1c(C)noc1C [Example 94] | 0.001 | 1 | – | –
19 | CCCCc1nc2c(N)nc3ccccc3c2n1CCCCNS(=O)(=O)c1cccc(F)c1 [Example 95] | 0.001 | 1 | – | –
20 | CCCCc1nc2c(N)nc3ccccc3c2n1CCCCNS(=O)(=O)c1ccc(-c2ccccc2)cc1 [Example 96] | 1 | > 10 | – | –
21 | CCCCc1nc2c(N)nc3ccccc3c2n1CCCCNS(=O)(=O)c1ccc(C)c([N+](=O)[O-])c1 [Example 97] | 0.1 | 10 | – | –

Row | Compound | minimal effective concentration (interferon (α); Homo sapiens, PBMC) [µM] | minimal effective concentration ([1]; Homo sapiens, PBMC) [µM] | minimal effective concentration (interferon (α)) [µM] | minimal effective concentration [1] [µM]
22 | CCCCc1ccc(S(=O)(=O)NCCCCn2c(CCCC)nc3c(N)nc4ccccc4c32)cc1 [Example 98] | 1 | > 10 | – | –
23 | CCCCc1nc2c(N)nc3ccccc3c2n1CCCCNS(=O)(=O)c1ccc(Br)s1 [Example 99] | 0.1 | 10 | – | –
24 | CCCCc1nc2c(N)nc3ccccc3c2n1CCCCNS(=O)(=O)c1cc(Cl)ccc1OC [Example 100] | 0.01 | 10 | – | –
25 | CCCCc1nc2c(N)nc3ccccc3c2n1CCCCNS(=O)(=O)c1ccc(Cl)s1 [Example 101] | 0.01 | 10 | – | –
26 | CCCCc1nc2c(N)nc3ccccc3c2n1CCCCNS(=O)(=O)c1ccc2c(c1)CN(C(=O)C(F)(F)F)CC2 [Example 102] | 0.001 | 10 | – | –
27 | CCCCc1nc2c(N)nc3ccccc3c2n1CCCCNS(=O)(=O)c1ccccc1C(F)(F)F [Example 103] | 0.1 | 10 | – | –
28 | CCCCc1nc2c(N)nc3ccccc3c2n1CCCCNS(=O)(=O)c1cccc(OC)c1 [Example 104] | 0.01 | > 10 | – | –
29 | CCCCc1nc2c(N)nc3ccccc3c2n1CCCCNS(=O)(=O)c1cc(Br)ccc1OC [Example 105] | – | – | 1 | 10
30 | CCCCc1nc2c(N)nc3ccccc3c2n1CCCCNS(=O)(=O)c1cc(F)ccc1C [Example 106] | 1 | 1 | – | –
31 | CCCCc1nc2c(N)nc3ccccc3c2n1CCCCNS(=O)(=O)c1c(C)c(C)c(C)c(C)c1C [Example 107] | 1 | > 10 | – | –
32 | CCOCc1nc2c(N)nc3ccccc3c2n1CCNS(C)(=O)=O [Example 108] | 0.1 | 10 | – | –
33 | CCOCc1nc2c(N)nc3ccccc3c2n1CCNS(=O)(=O)c1cccs1 [Example 109] | 1 | 10 | – | –
34 | CCOCc1nc2c(N)nc3ccccc3c2n1CCNS(=O)(=O)c1cccc2c(N(C)C)cccc12 [Example 110] | 10 | > 10 | – | –
35 | COCCc1nc2c(N)nc3ccccc3c2n1CCCCNS(C)(=O)=O [Example 111] | 0.001 | 10 | – | –
36 | COCCc1nc2c(N)nc3ccccc3c2n1CCCCNS(=O)(=O)c1cccs1 [Example 112] | 0.0001 | > 10 | – | –
37 | COCCc1nc2c(N)nc3ccccc3c2n1CCCCNS(=O)(=O)Cc1ccccc1 [Example 113] | 0.0001 | > 10 | – | –
38 | COCCc1nc2c(N)nc3ccccc3c2n1CCCCNS(=O)(=O)c1cccc2c(N(C)C)cccc12 [Example 114] | 0.01 | > 10 | – | –
39 | CCCS(=O)(=O)NCCCCn1c(CCOC)nc2c(N)nc3ccccc3c21 [Example 116] | 0.001 | 1 | – | –
40 | CCCCS(=O)(=O)NCCCCn1c(CCOC)nc2c(N)nc3ccccc3c21 [Example 117] | 0.0001 | 1 | – | –
41 | COCCc1nc2c(N)nc3ccccc3c2n1CCCCNS(=O)(=O)c1ccccc1F [Example 120] | 0.0001 | 1 | – | –
42 | COCCc1nc2c(N)nc3ccccc3c2n1CCCCNS(=O)(=O)c1ccc(F)cc1 [Example 121] | 0.0001 | 10 | – | –
